Assay: Peptide stability in HEK293T cell lysate
Type: in vitro ADME
Settings: human, HEK293T lysate 1 mg/ml in PBS, 1 mM peptide, 37 °C, HPLC/LCMS peak area normalized to ethylparaben standard, read-out: peptide still intact after 24 hours in cell lysate
From the text: Stapled peptides have been reported to be able to pass cell membranes with high efficiency, but their cell permeability is dependent on the peptide sequence and the position of the staple.[41] To evaluate whether the α3-helix derived peptide is cell permeable, we used azidolysine derivatized variants of P-6 and P-6S (P-6-Az and P-6S-Az) and used them in the NanoClick assay.[60] In this assay cells are transfected to express a NanoLuc–HaloTag fusion protein followed by treatment with a dibenzoazacyclooctyne reagent modified with a chloroalkane (DIBAC–CA) that covalently modifies the HaloTag protein. When an azide modified NanoBRET acceptor (NB618-Az) is added, it will undergo strain promoted azide–alkyne cycloaddition (SPAAC) with the DIBAC–CA placing the acceptor in the proximity of the NanoLuc protein leading to an observable BRET signal. […] The SPAAC reaction only happens if the peptide is able to reach the cytosol and the assay therefore provides a read-out of cell-permeability. […]
Peptide stability was measured in HEK293T lysates. […]
The samples were chilled on ice for 15 min and insoluble material was removed by centrifugation (16873 x g, 4 °C, 10 min). The supernatant was analysed by LCMS with a gradient of H2O (0.1% TFA) and ACN (0.1% TFA) from 5 to 95 % over 20 min. […]

CC(=O)N[C@@H](CC(N)=O)C(=O)N[C@@H](CCC(N)=O)C(=O)N[C@@]1(C)CCCCCCCC[C@@](C)(C(=O)N[C@@H](C)C(=O)N[C@@H](CC(C)C)C(=O)N[C@@H](CCC(N)=O)C(=O)N[C@@H](C)C(=O)N[C@H](C(=O)N[C@@H](CC(N)=O)C(N)=O)C(C)C)NC(=O)[C@H](CCC(N)=O)NC(=O)[C@H](C)NC(=O)[C@H](CCCNC(=N)N)NC1=O [Peptide P-2]
remaining at 24 h, 1 mM: 12%

CC(=O)N[C@@H](CC(N)=O)C(=O)N[C@@H](CCC(N)=O)C(=O)N[C@@]1(C)CCCC=CCCCC2(CCCC=CCCC[C@](C)(C(=O)N[C@H](C(=O)N[C@@H](CC(N)=O)C(N)=O)C(C)C)NC(=O)[C@H](CCC(N)=O)NC(=O)[C@H](CC(C)C)NC(=O)[C@H](C)NC2=O)NC(=O)[C@H](CCC(N)=O)NC(=O)[C@H](C)NC(=O)[C@H](CCCNC(=N)N)NC1=O (some centres unmarked) [Peptide P-6]
remaining at 24 h, 1 mM: 43%

Reference: paper PMC10411625, “Rationally designed stapled peptides allosterically inhibit PTBP1–RNA-binding” (Chemical Science, 2023)
